Test results published in the NIST ThermoML archive (doi:10.1021/je700699u).

Assay: cn = amount concentration of the nth substance listed, in mol/dm3
Conditions: 101 kPa, Liquid

NCCCCCC(=O)[O-].[K+] [potassium Salt of 6-aminohexanoic acid] + O
Conditions	mass density, 298.15 K [kg/m3]	mass density, 303.15 K [kg/m3]	mass density, 313.15 K [kg/m3]	mass density, 323.15 K [kg/m3]	mass density, 333.15 K [kg/m3]	viscosity, 298.15 K [mPa·s]	viscosity, 303.15 K [mPa·s]	viscosity, 313.15 K [mPa·s]	viscosity, 323.15 K [mPa·s]	viscosity, 333.15 K [mPa·s]
c1 = 0.497	1024	1022	1018	1014	1009	1.191	1.058	0.854	0.706	0.599
c1 = 1.002	1049	1048	1044	1038	1034	1.608	1.418	1.126	0.913	0.762
c1 = 1.429	1072	1070	1067	1061	1057	2.152	1.882	1.497	1.199	0.987
c1 = 1.982	1098	1095	1089	1084	1078	3.091	2.669	2.035	1.608	1.307
c1 = 2.458	1119	1117	1111	1105	1098	4.445	3.796	2.85	2.211	1.768
c1 = 2.942	1141	1139	1132	1126	1118	6.601	5.573	4.112	3.145	2.458

NCCC(=O)[O-].[K+] [potassium Salt of B-alanine] + O
Conditions	mass density, 298.15 K [kg/m3]	mass density, 303.15 K [kg/m3]	mass density, 313.15 K [kg/m3]	mass density, 323.15 K [kg/m3]	mass density, 333.15 K [kg/m3]	viscosity, 298.15 K [mPa·s]	viscosity, 303.15 K [mPa·s]	viscosity, 313.15 K [mPa·s]	viscosity, 323.15 K [mPa·s]	viscosity, 333.15 K [mPa·s]
c1 = 0.496	1026	1024	1020	1017	1011	1.05	0.944	0.762	0.638	0.546
c1 = 1.003	1053	1053	1048	1043	1038	1.23	1.097	0.892	0.744	0.634
c1 = 1.492	1079	1078	1074	1070	1065	1.453	1.293	1.049	0.871	0.737
c1 = 2.019	1107	1106	1100	1096	1090	1.759	1.548	1.25	1.027	0.866
c1 = 2.492	1133	1131	1126	1121	1116	2.131	1.881	1.497	1.223	1.022
c1 = 2.964	1157	1155	1150	1145	1140	2.609	2.293	1.808	1.464	1.217
c1 = 3.417	1181	1179	1174	1169	1162	3.245	2.832	2.209	1.77	1.459
